Structures are written as SMILES.

T1 sequence (P43119 whole entry): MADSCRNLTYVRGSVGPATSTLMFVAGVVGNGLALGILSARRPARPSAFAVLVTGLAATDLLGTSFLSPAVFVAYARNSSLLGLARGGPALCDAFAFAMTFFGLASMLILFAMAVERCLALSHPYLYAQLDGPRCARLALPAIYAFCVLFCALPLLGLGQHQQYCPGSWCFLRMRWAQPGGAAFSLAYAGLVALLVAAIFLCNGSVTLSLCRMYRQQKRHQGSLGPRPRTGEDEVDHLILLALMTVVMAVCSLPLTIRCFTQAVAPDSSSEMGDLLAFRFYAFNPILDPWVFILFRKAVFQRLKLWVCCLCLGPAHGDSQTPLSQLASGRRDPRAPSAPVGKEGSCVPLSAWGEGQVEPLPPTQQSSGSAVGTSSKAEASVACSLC

This assay addresses T1, IP receptor (Homo sapiens, UniProt P43119).
T1 construct: expressed in transfected cells
Kind of assay: cAMP accumulation in CHO cells stably expressing the IP receptor (CHO-IP), Perkin Elmer AlphaScreen assay. In kind it is cell-based. The following applies: agonist activity, 1 hour at room temperature. As to the method:
Activity of compounds at the IP receptor (IP receptor) is assessed by measuring cAMP accumulation in CHO cells stably expressing the IP receptor (CHO-IP) using the Perkin Elmer AlphaScreen assay. This technology measures the endogenous production of cAMP, in a non-radioactive luminescence proximity homogenous assay. A biological reaction occurs between streptavidin coated donor beads, biotinylated cAMP and anti-cAMP acceptor beads, bringing the donor and acceptor beads close enough together so that upon excitation a fluorescence signal is produced. On production of endogenous cAMP, competition between the biotinylated cAMP and cellular-derived cAMP causes a reduction in the fluorescent signal. The reduction in signal is proportional to the amount of cAMP being produced, thus it is possible to quantify the amount of cAMP being produced on stimulation with agonist.
Test and reference compounds are prepared at 100× [final] in 100% DMSO, and diluted 1:3 using a Biomek Fx (Beckman Coulter). This is followed by an intermediate dilution to give 5× [final] in assay buffer (HBSS containing 5 mM HEPES, 0.1% (w/v) BSA). 5 μL of 5× [final] test compounds, reference compounds and buffer/DMSO control are then transferred to a 384-well white OptiPlate, containing 20 μL CHO-IP cell suspension (15,000 cells/well, prepared from frozen), and plate is incubated at room temperature for 1 hour. A cAMP standard curve is constructed for each experiment (concentration range of 10000 nM to 0.001 nM, in assay buffer) and 25 μL of each concentration added to the last two columns of the assay plate. The incubation is terminated by the addition of lysis buffer (dH2O; 0.3% (v v^−1) Tween-20) containing 20 units mL^−1 streptavidin coated donor beads and biotinylated cAMP (pre-incubated for 30 minutes) and 20 units mL^−1 anti-cAMP acceptor beads, which are added to the lysis buffer just before addition to the assay plate. The assay plate is then incubated at room temperature in the dark, for 60 minutes with gentle shaking, and read on the Envision plate reader (Perkin Elmer).
The raw data of the reference compounds, test compounds and controls are converted into cAMP concentrations, using the cAMP standard curve, in GraphPadPrism (GraphPad Software Inc). EC50 as well as maximal values of the agonist curves are determined using a 4-parameter logistic equation. The % maximum response values of all test compounds are determined using the top of the treprostinil concentration-response curve.
(Cyclic AMP is a second messenger, typically raised through Gs and lowered through Gi signalling.)
Turning to `Cc1ccc(-c2nc3c(nc2-c2ccc(C)cc2)N(CCCCC2SC(=O)NC2=O)CCC3)cc1` (single isomer, unassigned) [1(a), (S)-5-(4-(2,3-di-p-tolyl-7,8-dihydropyrido[2,3-b]pyrazin-5(6H)-yl)butyl)thiazolidine-2,4-dione or (R)-5-(4-(2,3-di-p-tolyl-7,8-dihydropyrido[2,3-b]pyrazin-5(6H)-yl)butyl)thiazolidine-2,4-dione], the response was half-maximal at 3.71 nM (EC50).

Take `Cc1ccc(-c2nc3c(nc2-c2ccc(C)cc2)N(CCCCc2noc(=O)[nH]2)CCC3)cc1` [Example 6.2, 3-(4-(2,3-Di-p-tolyl-7,8-dihydropyrido[2,3-b]pyrazin-5(6H)-yl)butyl)-1,2,4-oxadiazol-5(4H)-one]: the EC50 – broadly, the concentration needed to bring the measured effect to its halfway point – amounted to 14.7 nM. Under `Cc1ccc(-c2nc3c(nc2-c2ccc(C)cc2)N(CCCCC2SC(=O)NC2=O)CCC3)cc1` (racemic) [Example 1, rac-5-(4-(2,3-Di-p-tolyl-7,8-dihydropyrido[2,3-b]pyrazin-5(6H)-yl)butyl)thiazolidine-2,4-dione] stands 8.91 nM. Under `Cc1ccc(-c2nc3c(nc2-c2ccc(C)cc2)N(CCCCC2CC(=O)NO2)CCC3)cc1` (centres unmarked) [Example 7, 5-(4-(2,3-Di-p-tolyl-7,8-dihydropyrido[2,3-b]pyrazin-5(6H)-yl)butyl)isoxazolidin-3-one] stands 2.86 nM.

In turn, `Cc1ccc(-c2nc3c(nc2-c2ccc(C)cc2)N(CCCCCCc2noc(=O)[nH]2)CCC3)cc1` [Example 6, 3-(6-(2,3-Di-p-tolyl-7,8-dihydropyrido[2,3-b]pyrazin-5(6H)-yl)hexyl)-1,2,4-oxadiazol-5(4H)-one] showed an EC50 of 28.3 nM. Under `Cc1ccc(-c2nc3c(nc2-c2ccc(C)cc2)N(CCCCCc2noc(=O)[nH]2)CCC3)cc1` [Example 6.1, 3-(5-(2,3-Di-p-tolyl-7,8-dihydropyrido[2,3-b]pyrazin-5(6H)-yl)pentyl)-1,2,4-oxadiazol-5(4H)-one] stands 15.3 nM; under `Cc1ccc(-c2nc3c(nc2-c2ccc(C)cc2)N(CCCCC2=C(O)CCC2=O)CCC3)cc1` [Example 5, 2-(4-(2,3-Ddi-p-tolyl-7,8-dihydropyrido[2,3-b]pyrazin-5(6H)-yl)butyl)-3-hydroxycyclopent-2-enone], 165 nM; under `Cc1ccc(-c2nc3c(nc2-c2ccc(C)cc2)N(CCCCC2SC(=O)NC2=O)CCC3)cc1` (single isomer, unassigned) [1(b), (S)-5-(4-(2,3-di-p-tolyl-7,8-dihydropyrido[2,3-b]pyrazin-5(6H)-yl)butyl)thiazolidine-2,4-dione or (R)-5-(4-(2,3-di-p-tolyl-7,8-dihydropyrido[2,3-b]pyrazin-5(6H)-yl)butyl)thiazolidine-2,4-dione], 12 nM. Compound `Cc1ccc(-c2nc3c(nc2-c2ccc(C)cc2)N(CCCC/C=C2/SC(=O)NC2=O)CCC3)cc1` [Example 4, 5-(5-(2,3-Ddi-p-tolyl-7,8-dihydropyrido[2,3-b]pyrazin-5(6H)-yl)pentylidene)thiazolidine-2,4-dione] came in with an EC50 of 2 nM. `Cc1ccc(-c2nc3c(nc2-c2ccc(C)cc2)N(CCCCCC2=C(O)CCC2=O)CCC3)cc1` [Example 3, 2-(5-(2,3-Di-p-tolyl-7,8-dihydropyrido[2,3-b]pyrazin-5(6H)-yl)pentyl)-3-hydroxycyclopent-2-enone] displayed an EC50 of 7.68 nM. The compound `Cc1ccc(-c2nc3c(nc2-c2ccc(C)cc2)N(CCCCc2cc(O)no2)CCC3)cc1` [Example 8, 5-(4-(2,3-Di-p-tolyl-7,8-dihydropyrido[2,3-b]pyrazin-5(6H)-yl)butyl)isoxazol-3-ol] came in with an EC50 of 34.3 nM.

For the origin of these results see US20140357641A1, “IP receptor agonist heterocyclic compounds” (NOVARTIS AG, priority 2012, published 2014).
